Test results taken from ChEMBL document CHEMBL1131059, “Synthesis and biological activity of a new series of N6-arylcarbamoyl, 2-(Ar)alkynyl-N6-arylcarbamoyl, and N6-carboxamido derivatives of adenosine-5'-N-ethyluronamide as A1 and A3 adenosine receptor agonists” (J Med Chem, 1998).

Columns and labels:
Adenosine receptor A2a = Adenosine receptor A2a (Rattus norvegicus, UniProt P30543)
Description: Binding affinity against adenosine A2A receptor in rat striatal membranes using [3H]-CGS- 21680.

Adenosine receptor A1 = molecular target: T1, Adenosine receptor A1 (Rattus norvegicus, UniProt P25099)
T1 sequence (P25099 whole entry): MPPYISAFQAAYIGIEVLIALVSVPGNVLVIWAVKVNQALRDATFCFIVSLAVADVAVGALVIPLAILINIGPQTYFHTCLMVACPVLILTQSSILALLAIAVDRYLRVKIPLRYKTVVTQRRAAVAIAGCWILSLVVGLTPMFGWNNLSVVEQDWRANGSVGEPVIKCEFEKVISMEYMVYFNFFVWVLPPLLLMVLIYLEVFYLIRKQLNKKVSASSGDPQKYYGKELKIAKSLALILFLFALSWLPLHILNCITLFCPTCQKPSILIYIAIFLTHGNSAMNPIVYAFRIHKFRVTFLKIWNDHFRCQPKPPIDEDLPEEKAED
Description: Binding affinity against adenosine A1 receptor in rat brain membranes using [3H]R-PIA.

[1] = molecular target: Adenosine receptors; A1 & A3 (Rattus norvegicus) (UniProt P25099+P28647); experiment: Selectivity for binding affinity towards A1 adenosine receptor in rat brain membrane and rat A3 receptor expressed in CHO cells.; type: cell-based
Adenosine receptor A3 = molecular target: T2, Adenosine receptor A3 (Rattus norvegicus, UniProt P28647); experiment: biochemical
T2 sequence (P28647 whole entry): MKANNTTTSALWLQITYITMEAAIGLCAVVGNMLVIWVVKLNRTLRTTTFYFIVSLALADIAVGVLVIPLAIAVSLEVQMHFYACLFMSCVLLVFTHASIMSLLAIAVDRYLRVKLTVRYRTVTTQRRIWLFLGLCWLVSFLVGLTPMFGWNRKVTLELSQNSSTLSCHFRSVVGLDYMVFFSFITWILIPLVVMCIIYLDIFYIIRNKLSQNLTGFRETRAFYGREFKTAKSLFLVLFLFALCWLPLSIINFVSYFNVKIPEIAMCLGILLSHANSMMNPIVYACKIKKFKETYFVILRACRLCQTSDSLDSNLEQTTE
Description: Binding affinity against rat adenosine A3 receptor expressed in CHO cells using [125I]-.

[2] = molecular target: Adenosine receptor A2a (Rattus norvegicus) (UniProt P30543); experiment: Binding affinity against Adenosine A2A receptor of rat striatal membranes using [3H]- CGS 21680 at 10E-4; settings: concentration not given here
Sequence of Adenosine receptor A2a (Rattus norvegicus) (P30543 whole entry): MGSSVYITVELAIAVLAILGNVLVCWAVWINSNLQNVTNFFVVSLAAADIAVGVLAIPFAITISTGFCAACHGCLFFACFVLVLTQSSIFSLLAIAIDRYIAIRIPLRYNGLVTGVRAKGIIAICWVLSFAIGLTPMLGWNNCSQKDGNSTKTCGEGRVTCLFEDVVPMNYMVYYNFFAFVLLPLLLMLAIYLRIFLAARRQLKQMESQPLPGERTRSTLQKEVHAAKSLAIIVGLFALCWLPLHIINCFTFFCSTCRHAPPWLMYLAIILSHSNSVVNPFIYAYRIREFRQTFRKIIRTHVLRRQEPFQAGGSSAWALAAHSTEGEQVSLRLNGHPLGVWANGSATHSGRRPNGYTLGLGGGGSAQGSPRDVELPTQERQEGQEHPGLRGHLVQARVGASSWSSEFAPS

Sequence of Adenosine receptor A2a (P30543 whole entry): as above

SMILES	Ki (Adenosine receptor A2a) [nM]	Ki (Adenosine receptor A1) [nM]	Ratio [1]	Ki (Adenosine receptor A3) [nM]	inhibition [2] [%]
CCNC(=O)[C@H]1O[C@@H](n2cnc3c(NC(=O)Nc4ccc(NS(=O)(=O)c5ccccn5)cc4)ncnc32)[C@H](O)[C@@H]1O	740	292	5.4	54.1	–
CCNC(=O)[C@H]1O[C@@H](n2cnc3c(NC(=O)Nc4ccc(OC)cc4)nc(I)nc32)[C@H](O)[C@@H]1O	260	29.4	0.12	251	–
CCNC(=O)[C@H]1O[C@@H](n2cnc3c(NC(=O)Nc4ccc(OC)cc4)nc(C#CC(O)c4ccccc4)nc32)[C@H](O)[C@@H]1O (stereo partly specified)	–	75.1	0.23	324	12
CCNC(=O)[C@H]1O[C@@H](n2cnc3c(NC(=O)NCCc4ccccc4)ncnc32)[C@H](O)[C@@H]1O	2650	129	0.86	149	–
CCNC(=O)[C@H]1O[C@@H](n2cnc3c(NC(=O)Nc4ccc(OC)cc4)nc(C#CCCCc4ccccc4)nc32)[C@H](O)[C@@H]1O	1670	–	160	89.5	–
CCNC(=O)[C@H]1O[C@@H](n2cnc3c(NC(=O)Nc4cccc(Cl)c4)nc(C#Cc4ccccc4)nc32)[C@H](O)[C@@H]1O	48700	1330	2.1	611	–
CCNC(=O)[C@H]1O[C@@H](n2cnc3c(N(C(=O)Nc4ccc(Cl)cn4)C(=O)Nc4ccc(Cl)cn4)ncnc32)[C@H](O)[C@@H]1O	–	–	0.13	–	–
CCNC(=O)[C@H]1O[C@@H](n2cnc3c(NC(=O)Nc4ccc(NS(=O)(=O)c5ncccn5)cc4)ncnc32)[C@H](O)[C@@H]1O	16.8	725	1.7	405	–
CCNC(=O)[C@H]1OC(n2cnc3c(NC(=O)Nc4ccc(NS(=O)(=O)c5cc(C)on5)cc4)ncnc32)[C@H](O)[C@@H]1O (stereo partly specified)	977	901	5.8	155	–
CCCCC#Cc1nc(NC(=O)Nc2cccc(Cl)c2)c2ncn([C@@H]3O[C@H](C(=O)NCC)[C@@H](O)[C@H]3O)c2n1	7130	2040	3.5	581	–
CCNC(=O)[C@H]1O[C@@H](n2cnc3c(NC(=O)Cc4ccc(Cl)cc4Cl)ncnc32)[C@H](O)[C@@H]1O	–	–	0.095	–	–
CCNC(=O)[C@H]1O[C@@H](n2cnc3c(NC(=O)c4ccc(-c5ccccc5)cc4)ncnc32)[C@H](O)[C@@H]1O	–	–	0.006	–	–
CCNC(=O)[C@H]1O[C@@H](n2cnc3c(NC(=O)NCCc4ccc(OC)c(OC)c4)ncnc32)[C@H](O)[C@@H]1O	1570	1770	4.3	411	–
CCCCC#Cc1nc(NC(=O)Nc2ccc(OC)cc2)c2ncn([C@@H]3O[C@H](C(=O)NCC)[C@@H](O)[C@H]3O)c2n1	2330	428	2	211	–
CCNC(=O)[C@H]1O[C@@H](n2cnc3c(NC(=O)c4ccc(OC)cc4)ncnc32)[C@H](O)[C@@H]1O	–	–	0.1	–	–
CCNC(=O)[C@H]1O[C@@H](n2cnc3c(NC(=O)Nc4cccc(Cl)c4)nc(C#CC(O)c4ccccc4)nc32)[C@H](O)[C@@H]1O (stereo partly specified)	–	814	1.2	696	12
CCNC(=O)[C@H]1O[C@@H](n2cnc3c(NC(=O)Nc4ccc(OC)cc4)nc(C#Cc4ccccc4)nc32)[C@H](O)[C@@H]1O	–	4790	31	154	29
CCNC(=O)[C@H]1O[C@@H](n2cnc3c(NC(=O)Nc4cccc(Cl)c4)nc(Cl)nc32)[C@H](O)[C@@H]1O	557	90	1.2	77.6	–
CNC(=O)[C@H]1OC(n2cnc3c(NCc4cccc(I)c4Cl)ncnc32)[C@H](O)[C@@H]1O (stereo partly specified)	470	820	2500	0.33	–
CCNC(=O)[C@H]1O[C@@H](n2cnc3c(NC(=O)c4ccccc4Cl)ncnc32)[C@H](O)[C@@H]1O	1960	1170	1.6	754	–
CCNC(=O)[C@H]1O[C@@H](n2cnc3c(NC(=O)Nc4ccc(OC)cc4)nc(Cl)nc32)[C@H](O)[C@@H]1O	59	22	1.2	17.1	–
CCNC(=O)[C@H]1O[C@@H](n2cnc3c(NC(=O)Nc4cccc(Cl)c4)nc(I)nc32)[C@H](O)[C@@H]1O	10600	103	0.33	315	–

The remaining lines, values ahead:

Ki (Adenosine receptor A2a) [nM]	Ki (Adenosine receptor A1) [nM]	Ratio [1]	Ki (Adenosine receptor A3) [nM]	inhibition [2] [%]	SMILES
–	–	0.27	–	–	CCNC(=O)[C@H]1O[C@@H](n2cnc3c(NC(=O)Nc4cc(C)on4)ncnc32)[C@H](O)[C@@H]1O
–	–	1.7	–	–	CCNC(=O)[C@H]1O[C@@H](n2cnc3c(NC(=O)N[C@@H](C)c4ccccc4)ncnc32)[C@H](O)[C@@H]1O
–	–	47	–	–	CCNC(=O)[C@H]1O[C@@H](n2cnc3c(NC(=O)Nc4ccc(S(N)(=O)=O)cc4)ncnc32)[C@H](O)[C@@H]1O
–	–	0.037	–	–	CCNC(=O)[C@H]1O[C@@H](n2cnc3c(NC(=O)Nc4nncs4)ncnc32)[C@H](O)[C@@H]1O
–	–	27	–	–	CCNC(=O)[C@H]1O[C@@H](n2cnc3c(NC(=O)N[C@H](C)c4ccccc4)ncnc32)[C@H](O)[C@@H]1O
1860	419	0.58	713	–	CCNC(=O)[C@H]1O[C@@H](n2cnc3c(NC(=O)NCc4ccco4)ncnc32)[C@H](O)[C@@H]1O
–	–	0.3	–	–	CCNC(=O)[C@H]1O[C@@H](n2cnc3c(NC(=O)c4ccccc4)ncnc32)[C@H](O)[C@@H]1O
255	247	2.3	107	–	CCCOc1ccc(NC(=O)Nc2ncnc3c2ncn3C2O[C@H](C(=O)NCC)[C@@H](O)[C@H]2O)cc1 (stereo partly specified)
–	–	4.5	–	–	CCNC(=O)[C@H]1O[C@@H](n2cnc3c(NC(=O)NCc4ccccc4)ncnc32)[C@H](O)[C@@H]1O
–	–	3.5	–	–	CCNC(=O)[C@H]1O[C@@H](n2cnc3c(NC(=O)Nc4ccc(C(C)=O)cc4)ncnc32)[C@H](O)[C@@H]1O
